# Reference: US11712438B2, “Phenyl derivatives as PGE2 receptor modulators” (IDORSIA PHARMACEUTICALS LTD, priority 2017, dated 2023)
# Assays:
# Assay in all cases: cell-based
# [1] = target: PTGER2 (EP2) (Homo sapiens, UniProt P43116)
# Description: (§1) The assay is using the PathHunter™ HEK 293 PTGER2 and PTGER4 b-arrestin cell lines from DiscoverX. The system is based on the Enzyme Fragment Complementation Technology. Two complementing fragments of the b-galactosidase enzyme are expressed within stably transfected cells. The larger portion of b-gal, termed EA for Enzyme Acceptor, is fused to the C-terminus of b-arrestin 2. The smaller fragment, termed ProLink™ tag, is fused to PTGER2 (EP2) or PTRGER4 (EP4) at the C-terminus. Upon activation, b-arrestin is recruited which forces the interaction of ProLink and EA, allowing complementation of the two fragments of b-gal and the formation of a functional enzyme which is capable of hydrolysing the substrate and generating a chemiluminescent signal.
# The HEK 293 PTGER2 b-arrestin cells (DiscoverX 93-021-4C1) are detached from culture dishes with a cell dissociation buffer (Invitrogen, 13151-014), and collected in growing medium (GM: DMEM+Glutamax-I (Invitrogen 32430)/10% FCS, 1% Penicilin/streptomycin). 5000 cells per well of a 384 well plate (white with white bottom Greiner 781080) are seeded in 20 ul per well of GM. Plate is incubated at 37° C., 5% CO2 for 24 hours.
# (§2) Stock solutions of test compounds are made at a concentration of 10 mM in DMSO, and serially diluted in DMSO to concentrations required for inhibition dose response curves (tested concentration range 10 μM-2 nM or 1 μM-0.2 nM).
# PGE2 (Cayman 14010, stock solution: 10 mM in DMSO) is used as agonist at 5 μM final concentration, corresponding to EC80.
# Five microliters of diluted compounds are transferred into the assay plate. Plate is pre-incubated 15 minutes at 37° C. Then five microliters of PGE2 (final conc. 5 μM) are transferred into the assay plate. Plate is incubated 120 minutes at 37° C.
# Twelve μl of reagent are transferred to the assay plate and incubate for 1 hour at room temperature in the dark. Luminescence counts are read on a BMG Fluostar Optima reader according to manufacturer's instructions.
# (§3) For each compound concentration calculate of the percentage of activity compared to DMSO control value as average±STDEV. (each concentration is measured in duplicate)
# (§4) When compounds were measured multiple times, mean values are given.
# [2] = target: PTRGER4 (EP4) (Homo sapiens, UniProt P35408);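 note: assay plate preincubated 15 min at 37 °C, after which PGE2 was added at 20 nM final and incubation continued 120 min at 37 °C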
# Description: as §1
# The HEK 293 PTGER4 b-arrestin cells (DiscoverX 93-030-4C1) are detached from culture dishes with a cell dissociation buffer (Invitrogen, 13151-014), and collected in growing medium (GM: DMEM+Glutamax-I (Invitrogen 32430)/10% FCS, 1% Penicilin/streptomycin). 5000 cells per well of a 384 well plate (white with white bottom Greiner 781080) are seeded in 20 ul per well of GM. Plate is incubated at 37° C., 5% CO2 for 24 hours.
# as §2
# PGE2 (Cayman 14010, stock solution: 100 uM in DMSO) is used as agonist at 20 nM final concentration, corresponding to EC80.
# Five microliters of diluted compounds are transferred into the assay plate. Plate is pre-incubated 15 minutes at 37° C. Then five microliters of PGE2 (final conc. 20 nM) are transferred into the assay plate. Plate is incubated 120 minutes at 37° C.
# Twelve μl of reagent are transferred to the assay plate and incubate for 1 hour at room temperature in the dark. Luminescence counts are read on a BMG Fluostar Optima reader according to manufacturers instructions.
# as §3, §4
# [3] = target: EP2 (Homo sapiens, UniProt P43116);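 note: SF295 glioblastoma cells with endogenous EP2 only, PGE2-stimulated cAMP accumulation read by HTRF competitive immunoassay, 45 min pre-incubation then 30 min at room temperature, IBMX in buffer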
# EP2, sequence (P43116 whole entry): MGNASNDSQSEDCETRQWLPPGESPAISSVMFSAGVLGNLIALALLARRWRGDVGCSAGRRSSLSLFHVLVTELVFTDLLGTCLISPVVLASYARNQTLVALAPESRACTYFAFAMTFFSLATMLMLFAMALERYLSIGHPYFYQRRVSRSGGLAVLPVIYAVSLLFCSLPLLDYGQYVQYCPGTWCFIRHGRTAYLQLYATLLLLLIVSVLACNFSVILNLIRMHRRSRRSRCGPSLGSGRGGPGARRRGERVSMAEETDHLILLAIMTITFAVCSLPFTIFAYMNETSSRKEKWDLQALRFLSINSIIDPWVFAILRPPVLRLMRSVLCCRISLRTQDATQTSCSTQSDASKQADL
# [4] = target: EP4 (Homo sapiens, UniProt P35408);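 note: inhibition of PGE2-evoked (6 nM) cAMP accumulation in BT549 breast cancer cells endogenously expressing EP4, cAMP read by HTRF competitive immunoassay after 30 min at room temperature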
# EP4, sequence (P35408 whole entry): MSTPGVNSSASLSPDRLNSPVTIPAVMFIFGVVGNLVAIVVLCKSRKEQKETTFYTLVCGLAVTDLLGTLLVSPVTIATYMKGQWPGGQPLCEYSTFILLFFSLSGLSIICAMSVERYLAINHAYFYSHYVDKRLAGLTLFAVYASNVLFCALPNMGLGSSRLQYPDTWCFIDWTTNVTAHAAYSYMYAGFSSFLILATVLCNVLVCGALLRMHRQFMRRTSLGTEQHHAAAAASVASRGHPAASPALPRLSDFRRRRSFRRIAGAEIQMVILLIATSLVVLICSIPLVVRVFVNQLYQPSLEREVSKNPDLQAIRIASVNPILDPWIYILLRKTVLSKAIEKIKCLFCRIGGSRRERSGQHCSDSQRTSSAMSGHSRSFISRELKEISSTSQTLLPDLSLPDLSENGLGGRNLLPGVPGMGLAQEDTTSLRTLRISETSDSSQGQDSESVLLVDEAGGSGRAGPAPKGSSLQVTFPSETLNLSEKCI
# PTRGER4 (EP4), sequence (P35408 whole entry): as above
# PTGER2 (EP2), sequence (P43116 whole entry): as the sequence (P43116 whole entry) above
Compound,IC50 [1],IC50 [2],IC50 [3],IC50 [4]
"CCOc1cc(-c2cc(NCCc3c(OC)cc(Br)cc3OC)ncn2)sc1-c1noc(=O)[nH]1 [Example 88, 3-(5-{6-[2-(4-Bromo-2,6-dimethoxy-phenyl)-ethylamino]-pyrimidin-4-yl}-3-ethoxy-thiophen-2yl)-[1,2,4]oxadiazol-5(4H)-one]",9 nM,2 nM,31 nM,6 nM
"CCCOc1cc(Br)ccc1CCNc1cc(-c2cc(OCC)c(-c3noc(=O)[nH]3)s2)ncn1 [Example 89, 3-(5-{6-[2-(4-Bromo-2-propoxy-phenyl)-ethylamino]-pyrimidin-4-yl}-3-ethoxy-thiophen-2yl)-[1,2,4]oxadiazol-5(4H)-one]",17 nM,3 nM,10 nM,58 nM
"CCOc1cc(C(F)(F)F)ccc1CCNc1cc(-c2cc(OCC)c(-c3noc(=O)[nH]3)s2)ncn1 [Example 90, 3-(3-Ethoxy-5-{6-[2-(2-ethoxy-4-trifluoromethyl-phenyl)-ethylamino]-pyrimidin-4-yl}-thiophen-2yl)-[1,2,4]oxadiazol-5(4H)-one]",26 nM,3 nM,24 nM,10 nM
"CCOc1cc(-c2cc(NCCc3ccc(OC)cc3F)ncn2)sc1-c1noc(=O)[nH]1 [Example 92, 3-(3-Ethoxy-5-{6-[2-(2-fluoro-4-methoxy-phenyl)-ethylamino]-pyrimidin-4-yl}-thiophen-2yl)-[1,2,4]oxadiazol-5(4H)-one]",48 nM,4 nM,68 nM,4 nM
"CCOc1cc(-c2cc(NCCc3cc(Cl)ccc3Br)ncn2)sc1-c1noc(=O)[nH]1 [Example 94, 3-(5-{6-[2-(2-Bromo-5-chloro-phenyl)-ethylamino]-pyrimidin-4-yl}-3-ethoxy-thiophen-2-yl)-[1,2,4]oxadiazol-5(4H)-one]",79 nM,90 nM,82 nM,93 nM
"CCOc1cc(F)ccc1CCNc1cc(-c2cc(OCC)c(-c3noc(=O)[nH]3)s2)ncn1 [Example 95, 3-(3-Ethoxy-5-{6-[2-(2-ethoxy-4-fluoro-phenyl)-ethylamino]-pyrimidin-4-yl}-thiophen-2-yl)-[1,2,4]oxadiazol-5(4H)-one]",30 nM,59 nM,15 nM,166 nM
CCOc1cc(-c2cc(NCCc3ccc(Cl)cc3C#N)ncn2)sc1-c1noc(=O)[nH]1 [Example 96],24 nM,43 nM,58 nM,106 nM
CCOc1cc(-c2cc(NCCc3ccc(F)cc3C#N)ncn2)sc1-c1noc(=O)[nH]1 [Example 97],131 nM,95 nM,144 nM,127 nM
"CCOc1cc(-c2cc(NCCc3c(F)ccc(Cl)c3F)ncn2)sc1-c1noc(=O)[nH]1 [Example 98, 3-(5-{6-[2-(3-Chloro-2,6-difluoro-phenyl)-ethylamino]-pyrimidin-4-yl}-3-ethoxy-thiophen-2yl)-[1,2,4]oxadiazol-5(4H)-one]",53 nM,14 nM,83 nM,50 nM
"CCOc1cc(-c2cc(NCCc3ccc(OC)cc3CC)ncn2)sc1-c1noc(=O)[nH]1 [Example 99, 3-(3-Ethoxy-5-{6-[2-(2-ethyl-4-methoxy-phenyl)-ethylamino]-pyrimidin-4-yl}-thiophen-2-yl)-[1,2,4]oxadiazol-5(4H)-one]",75 nM,45 nM,80 nM,69 nM
"CCOc1cc(-c2cc(NCCc3c(F)ccc(F)c3Cl)ncn2)sc1-c1noc(=O)[nH]1 [Example 100, 3-(5-{6-[2-(2-Chloro-3,6-difluoro-phenyl)-ethylamino]-pyrimidin-4-yl}-3-ethoxy-thiophen-2yl)-[1,2,4]oxadiazol-5(4H)-one]",17 nM,27 nM,50 nM,59 nM
"CCOc1cc(-c2cc(NCCc3c(F)cc(F)cc3F)ncn2)sc1-c1noc(=O)[nH]1 [Example 101, 3-(3-Ethoxy-5-{6-[2-(2,4,6-trifluoro-phenyl)-ethylamino]-pyrimidin-4-yl}-thiophen-2-yl)-[1,2,4]oxadiazol-5(4H)-one]",44 nM,103 nM,62 nM,82 nM
"CCOc1ccccc1CCNc1cc(-c2cc(OCC)c(-c3noc(=O)[nH]3)s2)ncn1 [Example 102, 3-(3-Ethoxy-5-{6-[2-(2-ethoxy-phenyl)-ethylamino]-pyrimidin-4-yl}-thiophen-2-yl)-[1,2,4]oxadiazol-5(4H)-one]",34 nM,91 nM,17 nM,122 nM
"CCOc1cc(-c2cc(NCCc3c(F)cccc3F)ncn2)sc1-c1noc(=O)[nH]1 [Example 103, 3-(5-{6-[2-(2,6-Difluoro-phenyl)-ethylamino]-pyrimidin-4-yl}-3-ethoxy-thiophen-2-yl)-[1,2,4]oxadiazol-5(4H)-one]",62 nM,36 nM,39 nM,39 nM
"CCOc1cc(-c2cc(NCCc3c(F)cc(Cl)cc3F)ncn2)sc1-c1noc(=O)[nH]1 [Example 105, 3-(5-{6-[2-(4-Chloro-2,6-difluoro-phenyl)-ethylamino]-pyrimidin-4-yl}-3-ethoxy-thiophen-2yl)-[1,2,4]oxadiazol-5(4H)-one]",11 nM,9 nM,40 nM,25 nM
"CCOc1cc(-c2cc(NCCc3ccc(Br)c(Cl)c3)ncn2)sc1-c1noc(=O)[nH]1 [Example 106, 3-(5-{6-[2-(4-Bromo-3-chloro-phenyl)-ethylamino]-pyrimidin-4-yl}-3-ethoxy-thiophen-2-yl)-[1,2,4]oxadiazol-5(4H)-one]",35 nM,1 nM,49 nM,10 nM
"CCOc1cc(-c2cc(NCCc3cc(F)c(Br)cc3F)ncn2)sc1-c1noc(=O)[nH]1 [Example 107, 3-(5-{6-[2-(4-Bromo-2,5-difluoro-phenyl)-ethylamino]-pyrimidin-4-yl}-3-ethoxy-thiophen-2yl)-[1,2,4]oxadiazol-5(4H)-one]",10 nM,2 nM,11 nM,7 nM

# The next lines start with the values.
IC50 [1],IC50 [2],IC50 [3],IC50 [4],Compound
28 nM,5 nM,113 nM,15 nM,"CCOc1cc(-c2cc(NCCc3ccc(Br)c(F)c3)ncn2)sc1-c1noc(=O)[nH]1 [Example 108, 3-(5-{6-[2-(4-Bromo-3-fluoro-phenyl)-ethylamino]-pyrimidin-4-yl}-3-ethoxy-thiophen-2-yl)-[1,2,4]oxadiazol-5(4H)-one]"
6 nM,2 nM,9 nM,3 nM,"CCOc1cc(-c2cc(NCCc3c(F)cc(Br)cc3F)ncn2)sc1-c1noc(=O)[nH]1 [Example 110, 3-(5-{6-[2-(4-Bromo-2,6-difluoro-phenyl)-ethylamino]-pyrimidin-4-yl}-3-ethoxy-thiophen-2yl)-[1,2,4]oxadiazol-5(4H)-one]"
31 nM,6 nM,137 nM,26 nM,"CCOc1cc(-c2cc(NCCc3cc(F)c(Br)cc3C)ncn2)sc1-c1noc(=O)[nH]1 [Example 111, 3-(5-{6-[2-(4-Bromo-5-fluoro-2-methyl-phenyl)-ethylamino]-pyrimidin-4-yl}-3-ethoxy-thiophen-2yl)-[1,2,4]oxadiazol-5(4H)-one]"
47 nM,3 nM,113 nM,29 nM,"CCOc1cc(-c2cc(NCCc3ccc(Br)c(C)c3)ncn2)sc1-c1noc(=O)[nH]1 [Example 113, 3-(5-{6-[2-(4-Bromo-3-methyl-phenyl)-ethylamino]-pyrimidin-4-yl}-3-ethoxy-thiophen-2-yl)-[1,2,4]oxadiazol-5(4H)-one]"
15 nM,3 nM,27 nM,8 nM,"CCOc1cc(-c2cc(NCCc3cc(C)c(Br)cc3F)ncn2)sc1-c1noc(=O)[nH]1 [Example 114, 3-(5-{6-[2-(4-Bromo-2-fluoro-5-methyl-phenyl)-ethylamino]-pyrimidin-4-yl}-3-ethoxy-thiophen-2yl)-[1,2,4]oxadiazol-5(4H)-one]"
44 nM,16 nM,51 nM,12 nM,"CCOc1cc(-c2cc(NCCc3ccc(Br)c(OC)c3)ncn2)sc1-c1noc(=O)[nH]1 [Example 115, 3-(5-{6-[2-(4-Bromo-3-methoxy-phenyl)-ethylamino]-pyrimidin-4-yl}-3-ethoxy-thiophen-2yl)-[1,2,4]oxadiazol-5(4H)-one]"
10 nM,5 nM,14 nM,8 nM,"CCOc1cc(-c2cc(NCCc3ccc(OC)cc3OC)ncn2)sc1-c1noc(=O)[nH]1 [Example 116, 3-(5-{6-[2-(2,4-Dimethoxy-phenyl)-ethylamino]-pyrimidin-4-yl}-3-ethoxy-thiophen-2-yl)-[1,2,4]oxadiazol-5(4H)-one]"
692 nM,16 nM,244 nM,26 nM,"CCOc1cc(-c2cc(NCCc3ccc(OC)c(O)c3)ncn2)sc1-c1noc(=O)[nH]1 [Example 117, 3-(3-Ethoxy-5-{6-[2-(3-hydroxy-4-methoxy-phenyl)-ethylamino]-pyrimidin-4-yl}-thiophen-2yl)-[1,2,4]oxadiazol-5(4H)-one]"
488 nM,316 nM,266 nM,148 nM,"CCOc1cc(-c2cc(NCCc3ccc(O)c(OC)c3)ncn2)sc1-c1noc(=O)[nH]1 [Example 118, 3-(3-Ethoxy-5-{6-[2-(4-hydroxy-3-methoxy-phenyl)-ethylamino]-pyrimidin-4-yl}-thiophen-2yl)-[1,2,4]oxadiazol-5(4H)-one]"
10 nM,5 nM,17 nM,11 nM,"CCOc1cc(-c2cc(NCCc3cccc(OC)c3OC)ncn2)sc1-c1noc(=O)[nH]1 [Example 119, 3-(5-{6-[2-(2,3-Dimethoxy-phenyl)-ethylamino]-pyrimidin-4-yl}-3-ethoxy-thiophen-2-yl)-[1,2,4]oxadiazol-5(4H)-one]"
